Consider one substance from patent US11266710B2, “Angio-3 for treatment of retinal angiogenic diseases” (SINGAPORE HEALTH SERVICES PTE LTD, priority 2017, dated 2022).

The subject of this experiment is KIMBA mice (KIMBA-hVEGF Transgenic). Kind of experiment: Retinal angiogenesis (FFA leakage) in KIMBA mice. Format: in vivo, mouse. Conditions: single IVT injection 1 μg in 1 μL. The text has this:
FIGS. 1A, 1B, 1C and 1D show the efficacy of a single IV dose of angio-3 in attenuating the retinal angiogenesis in KIMBA mice, which have over expression of human VEGF (KIMBA-hVEGF Transgenic). FIG. 1A is a schematic of the experimental design. FIG. 1B are images showing Fundus Fluorescein Angiography (FFA) images of baseline and weekly after post treatment. Digital color fundus photographs were taken using a MICRON IV comprehensive system for rodent retinal imaging (Phoenix Research Labs, Pleasanton, Calif.) after pupil dilatation with topical administration of 1% tropicamide (Alcon Laboratories, Inc., Fort Worth, Tex.) and 2.5% phenylephrine (Bausch and Lomb Pharmaceuticals, Inc., Tampa, Fla.) ophthalmic solutions. […] Readout is the leakage of retinal vascularization post-administration of the drug. n=6 eyes per batch; n=3 batches; Values are expressed as means±s.e.m., **P<0.01, *P<0.05, student's t-test. […] All imaging was performed with a laser-scanning confocal fluorescence microscope.
FIGS. 2A, 2B, 2C and 2D show the efficacy of a single IVT dose of angio-3 and Eylea (anti-VEGF), positive control in attenuating the retinal angiogenesis in KIMBA mice. […] Readout is the leakage of retinal vascularization post-administration of the drug. n=10 eyes per batch; n=2 batches; Values are expressed as means±s.e.m., **P<0.01, *P<0.05, student's t-test. […]

For “Eylea: Eylea (anti-VEGF), positive control; clinical compound [reference compound]”, the “duration of effect in attenuating retinal angiogenesis post treatment” value is reported as 4 weeks.
